According to PMC9490236, “Accurate de novo design of membrane-traversing macrocycles” (Cell, 2022):
Where a SMILES comes first, the peptide text is derived from it. [ ]: non-standard residue; d: D form. NMeF = CN[C@@H](Cc1ccccc1)C(=O)O; dNMeF = CN[C@H](Cc1ccccc1)C(=O)O; NMeL = CN[C@@H](CC(C)C)C(=O)O; dNMeL = CN[C@H](CC(C)C)C(=O)O; NMeV = CN[C@H](C(=O)O)C(C)C; NMeA = CN[C@@H](C)C(=O)O; dNMeA = CN[C@H](C)C(=O)O; Sar = CNCC(=O)O

Columns and labels:
Caco-2 cells = test: Caco-2 permeability assay (apical to basolateral); format: in vitro ADME, human; set-up: Caco_R1 / Caco_R3: unit not given here
Protocol: Human colon adenocarcinoma-derived Caco-2 cell line was used as a model system to investigate the intestinal epithelial permeability of our designs. Caco-2 cells were propagated in T125 flasks (Corning, Merck) using Dulbecco’s modified Eagle medium supplemented with 10% (v/v) fetal bovine serum, 1% (v/v) nonessential amino acids, and 1% (v/v) penicillin-streptomycin (Gibco, Thermo Fisher Scientific) at 37°C in an atmosphere of 5% CO2. Cells were subcultured when they reached 80% confluence.
The permeability of designed peptides was evaluated using an accelerated 6-day Caco-2 permeability assay as described previously ([Sevin et al., 2013]). In brief, cells were seeded into the 12-well Transwell plates with 0.4 μm polyester membrane inserts (Corning, Merck) to give 4.0 × 10^5 cells/well. The complete assay medium contained Dulbecco’s modified Eagle medium supplemented with 10% (v/v) fetal bovine serum, 1% (v/v) nonessential amino acids, and 0.4 μg/mL puromycin. The medium in plates was renewed every second day. The inserts received 0.75 mL of assay medium in the upper compartment (apical chamber) and 1.5 mL in the bottom compartment (basolateral chamber) individually. After 6-day incubation or until the cells formed monolayers, the medium in the apical and basolateral chamber was replaced with peptide solutions at 50 μM or Hanks' Balanced Salt Solution (HBSS), separately. The plates were incubated for 90 min at 37°C on an orbital shaker (60 rpm). The peptide concentration of solutions in the apical and basolateral compartments was subsequently quantified using LC-MS (Qstar Elite, AB Sciex Australia) to evaluate the transmembrane flux of peptides in the apical-to-basolateral direction. Membrane integrity of the Caco-2 cell monolayer was validated using trans-epithelial electrical resistance (TEER) measurements before and after the assays. Atenolol and quinidine were included as negative and positive controls in all assays.

[1] = PAMPA
in vitro = conditions: PAMPA, PAMPA_Papp_Avg

SMILES | PAMPA_R1 [1] | PAMPA_R3 [1] | Papp (in vitro) [×10⁻⁶ cm/s] | also measured
CC[C@@H](C)[C@H]1NC(=O)[C@H](CC(C)C)NC(=O)[C@@H](CC(C)C)NC(=O)[C@H](C(C)C)NC(=O)[C@@H](Cc2ccccc2)N(C)C(=O)[C@@H]2CCCN2C(=O)[C@@H](CC(C)C)NC(=O)[C@H](CC(C)C)NC(=O)[C@H]2CCCN2C1=O (single isomer, unassigned) [Design D9.4.p2, LEU DILE DPRO LEU DLEU PRO *DPHE VAL DLEU] |  |  |  | Caco_R1 (Caco-2 cells; Caco-2 Papp, replicate 1): 3.27; Caco_R3 (Caco-2 cells; Caco-2 Papp, replicate 3): 2.03
CC[C@H](C)[C@@H]1NC(=O)[C@H](Cc2ccccc2)N(C)C(=O)[C@H](CC(C)C)N(C)C(=O)[C@@H](C(C)C)NC(=O)[C@@H](C)NC(=O)[C@@H]2CCCN2C(=O)[C@@H](CC(C)C)NC(=O)[C@@H]2CCCN2C(=O)[C@H](C)NC1=O (single isomer, unassigned) [Design D9.6.p2] |  |  |  | Caco_R1 (Caco-2 cells; Caco-2 Papp, replicate 1): 3.08; Caco_R3 (Caco-2 cells; Caco-2 Papp, replicate 3): 7.44
CC(C)C[C@@H]1NC(=O)[C@@H]2CCCN2C(=O)[C@@H](Cc2ccccc2)NC(=O)[C@H](C)N(C)C(=O)[C@H](CC(C)C)NC(=O)[C@H](CC(C)C)N(C)C(=O)[C@@H](C)NC(=O)[C@@H](CC(C)C)NC(=O)[C@@H]2CCCN2C(=O)[C@@H](Cc2ccccc2)NC1=O (single isomer, unassigned) [Design D10.2.p2, LEU DPHE PRO DLEU DALA *LEU LEU *ALA DPHE PRO] | 4.31E-07 | 4.68E-07 |  | Caco_Papp_Average (Caco-2 cells; Caco-2): 0; Caco_R1 (Caco-2 cells; Caco-2): 0; Caco_R3 (Caco-2 cells; Caco-2): 0; PAMPA_Papp_Avg [1]: 3.60E-07
CC[C@H](C)[C@@H]1NC(=O)[C@@H](Cc2ccccc2)NC(=O)[C@@H](C)NC(=O)[C@@H](C(C)C)NC(=O)[C@H](CCSC)NC(=O)[C@@H]2CCCN2C(=O)[C@H]2CCCN2C(=O)[C@@H]2CCCN2C(=O)[C@@H](C)N(C)C(=O)[C@@H](CC(C)C)N(C)C1=O [Design D10.45, DVAL DALA DPHE ILE *DLEU *DALA PRO DPRO PRO MET] (cyclo(M[dV][dA][dF]I[dNMeL][dNMeA]P[dP]P)) | 5.38E-07 | 3.72E-07 | 0.487 | 
CC[C@@H](C)[C@H]1NC(=O)[C@@H](CC(C)C)NC(=O)[C@@H](CC(C)C)NC(=O)[C@H]2CCCN2C(=O)[C@H](CC(C)C)N(C)C(=O)[C@@H](C)N(C)C(=O)[C@@H]2CCCN2C(=O)[C@@H]([C@H](C)CC)NC(=O)[C@@H](C(C)C)NC(=O)[C@@H]2CCCN2C1=O [Design D10.46, PRO DVAL DILE PRO *DALA *LEU DPRO DLEU DLEU DILE] (cyclo([NMeL][dP][dL][dL][dI]P[dV][dI]P[dNMeA])) | 8.07E-07 | 6.41E-07 | 0.684 | 
CC(C)C[C@@H]1NC(=O)[C@@H](Cc2ccccc2)N(C)C(=O)[C@H](C(C)C)NC(=O)[C@H](C)NC(=O)[C@@H](C)NC(=O)[C@@H](Cc2ccccc2)N(C)C(=O)[C@@H]2CCCN2C(=O)[C@H](C(C)C)NC(=O)[C@@H]2CCCN2C(=O)[C@@H](C)NC1=O [Design D10.48, DALA PRO VAL PRO *DPHE DALA ALA VAL *DPHE LEU] (cyclo(AV[dNMeF]L[dA]PVP[dNMeF][dA])) | 3.54E-07 | 4.59E-07 | 0.405 | 
CC(C)C[C@@H]1NC(=O)[C@H](C)NC(=O)[C@@H]2CCCN2C(=O)[C@H]2CCCN2C(=O)[C@H](Cc2ccccc2)NC(=O)[C@H]2CCCN2C(=O)[C@@H](Cc2ccccc2)N(C)C(=O)[C@@H]2CCCN2C(=O)[C@@H](C)NC(=O)[C@H](CC(C)C)NC1=O [Design D10.49, DALA PRO *DPHE DPRO PHE DPRO PRO ALA LEU LEU] (cyclo(ALL[dA]P[dNMeF][dP]F[dP]P)) | 2.36E-07 | 1.35E-07 | 0.17 | 
CC[C@@H](C)[C@H]1NC(=O)[C@H](Cc2ccccc2)N(C)C(=O)[C@@H](CC(C)C)N(C)C(=O)[C@H](C(C)C)NC(=O)[C@H](C)NC(=O)[C@@H]2CCCN2C(=O)[C@H](CC(C)C)N(C)C(=O)[C@@H](Cc2ccccc2)N(C)C(=O)[C@H](C)N(C)C(=O)[C@H](C)N(C)C1=O [Design D10.56, *DPHE *LEU PRO ALA VAL *DLEU *PHE DILE *ALA *ALA] (cyclo(AV[dNMeL][NMeF][dI][NMeA][NMeA][dNMeF][NMeL]P)) | 9.15E-06 | 8.95E-06 | 9.02 | 
CC(C)C[C@@H]1NC(=O)[C@@H](CC(C)C)N(C)C(=O)[C@@H]2CCCN2C(=O)[C@H](CC(C)C)N(C)C(=O)[C@@H](C)NC(=O)[C@@H](CC(C)C)N(C)C(=O)[C@@H]2CCCN2C(=O)CN(C)C(=O)[C@H](CC(C)C)N(C)C(=O)[C@H](Cc2ccccc2)NC1=O [Design D10.57, *LEU *GLY PRO *DLEU DALA *LEU PRO *DLEU LEU PHE] (cyclo(F[NMeL][Sar]P[dNMeL][dA][NMeL]P[dNMeL]L)) | 2.94E-06 | 3.42E-06 | 3.05 | 
C[C@H]1NC(=O)[C@@H](Cc2ccccc2)NC(=O)[C@H](Cc2ccccc2)N(C)C(=O)[C@H](Cc2ccccc2)N(C)C(=O)[C@@H](Cc2ccccc2)NC(=O)[C@H]2CCCN2C(=O)CNC(=O)[C@@H](C)NC(=O)[C@@H]2CCCN2C(=O)[C@@H](Cc2ccccc2)NC1=O [Design D10.62, DALA GLY DPRO DPHE *PHE *PHE DPHE DALA DPHE PRO] (cyclo(G[dP][dF][NMeF][NMeF][dF][dA][dF]P[dA])) | 4.48E-06 | 4.48E-06 | 4.23 | 
CC[C@@H](C)[C@H]1NC(=O)[C@H](C)NC(=O)[C@@H](CC(C)C)N(C)C(=O)[C@H](CC(C)C)N(C)C(=O)[C@H](C(C)C)NC(=O)[C@@H]2CCCN2C(=O)[C@@H](CC(C)C)N(C)C(=O)[C@@H](C)N(C)C(=O)[C@@H](Cc2ccccc2)NC(=O)[C@@H]2CCCN2C(=O)[C@H]2CCCN2C1=O [Design D11.6, VAL *LEU *DLEU ALA DILE DPRO PRO DPHE *DALA *DLEU PRO] (cyclo([dF][dNMeA][dNMeL]PV[NMeL][dNMeL]A[dI][dP]P)) | 1.24E-06 | 7.58E-07 | 0.949 | 
CC(C)C[C@@H]1NC(=O)[C@@H](C)NC(=O)[C@H]2CCCN2C(=O)[C@@H]2CCCN2C(=O)[C@@H](C(C)C)NC(=O)[C@@H](CC(C)C)N(C)C(=O)[C@H]2CCCN2C(=O)[C@H]2CCCN2C(=O)[C@@H](C)N(C)C(=O)[C@H](CC(C)C)N(C)C(=O)[C@@H](Cc2ccccc2)NC1=O [Design D11.16, LEU DPHE *LEU *DALA DPRO DPRO *DLEU DVAL PRO DPRO DALA] (cyclo(L[dF][NMeL][dNMeA][dP][dP][dNMeL][dV]P[dP][dA])) | 3.70E-07 | 4.55E-07 | 0.43 | 
CC[C@H](C)[C@@H]1NC(=O)[C@H](C(C)C)NC(=O)[C@@H](CC(C)C)N(C)C(=O)[C@H](Cc2ccccc2)NC(=O)[C@@H](CC(C)C)N(C)C(=O)[C@@H](C)N(C)C(=O)[C@H]2CCCN2C(=O)[C@@H]2CCCN2C(=O)[C@H](CC(C)C)NC(=O)[C@@H](C)N(C)C(=O)[C@@H]2CCCN2C1=O [Design D11.20, PRO *DALA LEU PRO DPRO *DALA *DLEU PHE *DLEU VAL ILE] (cyclo(F[dNMeL]VIP[dNMeA]LP[dP][dNMeA][dNMeL])) | 1.21E-06 | 9.60E-07 | 1.29 | 
CC[C@H](C)[C@@H]1NC(=O)[C@@H]2CCCN2C(=O)[C@H]2CCCN2C(=O)[C@@H](Cc2ccccc2)NC(=O)[C@@H](CC(C)C)N(C)C(=O)[C@H](C(C)C)NC(=O)[C@@H](CC(C)C)NC(=O)[C@@H]2CCCN2C(=O)[C@H]2CCCN2C(=O)[C@@H](C)N(C)C(=O)[C@H](C(C)C)N(C)C1=O [Design D11.21, PRO ILE *VAL *DALA DPRO PRO DLEU VAL *DLEU DPHE DPRO] (cyclo(I[NMeV][dNMeA][dP]P[dL]V[dNMeL][dF][dP]P)) | 2.47E-07 | 2.17E-07 | 0.24 | 
CC(C)C[C@H]1NC(=O)[C@@H](C)NC(=O)[C@@H](C)NC(=O)[C@H]2CCCN2C(=O)[C@@H]2CCCN2C(=O)[C@H]2CCCN2C(=O)[C@@H](C)NC(=O)[C@@H](Cc2ccccc2)N(C)C(=O)[C@H]2CCCN2C(=O)[C@@H](CC(C)C)NC(=O)[C@@H](CC(C)C)NC1=O [Design D11.25, DLEU DPRO *DPHE DALA DPRO PRO DPRO DALA DALA DLEU DLEU] (cyclo([dP][dA][dA][dL][dL][dL][dP][dNMeF][dA][dP]P)) | 3.92E-07 | 3.97E-07 | 0.405 | 
CC[C@H](C)[C@@H]1NC(=O)[C@H](C(C)C)N(C)C(=O)[C@H]2CCCN2C(=O)[C@H]([C@@H](C)CC)NC(=O)[C@@H](CC(C)C)N(C)C(=O)[C@@H](C)NC(=O)[C@@H]2CCCN2C(=O)[C@H]2CCCN2C(=O)[C@H](CC(C)C)NC(=O)[C@@H](Cc2ccccc2)NC(=O)[C@H](CC(C)C)NC(=O)[C@H]2CCCN2C1=O [Design D12.3, DPRO *VAL ILE DPRO LEU DPHE LEU DPRO PRO DALA *DLEU ILE] (cyclo([dA][dNMeL]I[dP][NMeV]I[dP]L[dF]L[dP]P)) | 7.65E-07 | 9.01E-07 | 0.789 | 
